{
  "source": "patent US7951751B2",
  "about": "“Synergistic, crop plant-compatible herbicidal compositions comprising herbicides from the group of the benzoylpyrazoles” (Bayer Crop Science AG, priority 2005, dated 2011)",
  "key": {"[1]": {"system": "STEME", "assay": "Herbicidal post-emergence action, greenhouse pot test, visual rating", "type": "in vivo", "settings": "rated 3 to 4 weeks after treatment", "description": "(§1) Seeds of monocotyledonous and dicotyledonous weed and crop plants are place into sandy loam in wood fiber pots or in plastic pots, covered with soil and cultivated in a greenhouse, including during the vegetation period outdoors outside of the greenhouse, under good growth conditions. 2-3 weeks after sowing, the test plants are treated at the one- to three-leaf stage. The test compounds, formulated as wettable powders (WP) or liquid (EC) are, in various dosages with a water application rate of 300 I/ha (converted), with added wetting agent (0.2 to 0.3%), sprayed onto the plants and the surface of the soil. 3 to 4 weeks after the treatment of the test plants, the effect of the preparations is rated visually in comparison to untreated controls (herbicidal effect in percent (%): 100% effect=plants have died, 0% effect=like control plants).\nIf it is additionally to be tested as to whether safeners can improve the plant compatibility of test substances in the case of crop plants, the following options are used for applying the safener: • seeds of the crop plants are, before sowing, dressed with the safener substance (the amount of safener is stated in percent, based on the weight of the seed) • before the application of the test substances, the crop plants are sprayed with the safener at a certain application rate per hectare (usually 1 day before the application of the test substances) • the safener is applied together with the test substance as a tank mix (the amount of safener is stated in g/ha or as a ratio, based on the herbicide).\nBy comparing the effect of the test substances on crop plants without or with safener treatment, it is possible to assess the effect of the safener substance."}, "[2]": {"system": "summer wheat", "assay": "Crop plant compatibility (damage) post-emergence, with and without safener", "type": "in vivo", "description": "as §1, with “plants). […]” for “plants).”"}},
  "data": [
    {"molecule": "Cc1nn(C)c(O)c1C(=O)c1ccc(C(F)(F)F)cc1S(C)(=O)=O", "note": "[A]", "values": [
      {"measurement": "Activity against STEME", "setting": "[1]; 37.5 g of a.i./ha, 100% = plants have died", "result": 50, "unit": "%"},
      {"measurement": "Damage of summer wheat", "setting": "[2]; 300 g of a.i./ha", "result": 15, "unit": "%"}
    ]},
    {"molecule": "N#Cc1cc(Br)c(O)c(Br)c1", "note": "[Component B1.2, bromoxynil]", "values": [
      {"measurement": "Activity against STEME", "setting": "[1]; 140 g of a.i./ha", "result": 70, "unit": "%"},
      {"measurement": "Damage of summer wheat", "setting": "[2]; 1680 g of a.i./ha", "result": 25, "unit": "%"}
    ]},
    {"molecule": "O=C(Nc1ccc(F)cc1F)c1cccnc1Oc1cccc(C(F)(F)F)c1", "note": "[Component B4.1, diflufenican]", "values": [
      {"measurement": "Activity against STEME", "setting": "[1]; 75 g of a.i./ha", "result": 70, "unit": "%"}
    ]},
    {"molecule": "CCOC(=O)C1=NN(c2ccc(Cl)cc2Cl)C(C)(C(=O)OCC)C1", "note": "(stereo not drawn) [Component C1, mefenpyr-diethyl]", "values": [
      {"measurement": "Activity against STEME", "setting": "[1]; 9.4 g of a.i./ha", "result": 0, "unit": "%"}
    ]}
  ]
}
